≈ marks a conversion by molar mass, not a printed value.
How the values were obtained:
[1] = tested on: P. aeruginosa (ATCC PAO-PR1); assay: Filter binding assay of Tc-99m-labelled conjugates; settings: Tc-99m-labelled conjugate, 37° C.
Procedure: Frozen cultures of bacteria are stored in vials at -80° C. until use. To inoculate a fresh bacterial culture, the vial of bacteria is removed from the freezer and continually kept frozen by being placed on dry ice. A small amount is removed using a sterile wooden applicator and transferred to a 50 mL culture flask, with screw cap, containing 10 mL of broth medium. The culture is incubated at 37° C. on a shaker at 200 rpm overnight*. The various microorganisms or compounds and broth media used are:
P. aeruginosa (ATCC PAO-PR1)→TSB
The cultures are then subcultured by removing […] of the culture (O.D. dependent) and transferring to a 50 mL culture flask containing 20 mL broth. The subcultures are incubated at 37° C. or 30° C. until a growth concentration of 10^8 cfu (colony forming unit)/mL is reached. The concentration of each microorganism is determined by reading the optical density (O.D.) of the subculture using a spectrophotometer. […]
Once the proper O.D. has been reached, 10 mL of the subculture is transferred to a 15 mL culture flask and 1×10^6 cpm of Tc-99m-labelled compound is added. […] There is also a background which is a flask containing broth with no microorganism and to which the radioactivity is also added. […] The filters are then assayed for radioactivity using a gamma well counter (Cobra II; Canberra Packard). […]

P. aeruginosa = assay: Antimicrobial assay; assay type: cell-based; settings: up to 64 mg/mL
Procedure: (§1) Fresh cultures of bacteria are made from frozen stock stored at -80° C. To inoculate a fresh culture, the stock is removed from the freezer and continually kept frozen by being placed on dry ice. A small amount is removed using a sterile wooden applicator and transferred to a 50 mL culture flask, with screw cap, containing 10 mL of broth medium. The culture is incubated at 37° C. on an orbital shaker at 200 rpm overnight. The various bacteria and broth media used are:
(§2) The following day, the cultures are subcultured by transferring […] (O.D. dependent) to a new culture flask containing 20 mL broth. The subcultures are incubated at 37° C. on a shaker (200 rpm) and the bacteria are allowed to grow to mid-log phase. This is usually around 1×10^8 cfu/mL, determined by measuring the O.D. of the subculture. The correlation between O.D. and growth of each bacteria has been previously established.
(§3) Once the proper O.D. has been obtained, a 200- or 400-fold dilution is made of the subculture and 1 mL of this dilution is added to 1 mL of compound or antibiotic (i.e. 2-fold dilution) to give a final concentration of 0, 2, 4, 8, 16, 32, and 64 mg/mL compound or antibiotic. A 100-fold dilution is made from the control culture (0 mg/mL) and […] samples (i.e. 1000-fold dilution) are plated onto a TSA (tryptic soy agar; Difco). The cultures are incubated overnight at 37° C. on an orbital shaker (200 rpm). The TSA plates are also incubated overnight at 37° C.
(§4) The following day, the cultures are examined for growth or turbidity. […] samples (i.e. 10-fold dilution) of any of the cultures showing no turbidity, i.e. no growth, are plated onto TSA. The plates are incubated overnight at 37° C. and the number of cfu, if any, are counted. The control TSA plates are counted for the number of cfu for comparison with the culture plates.
(§5) MIC (minimal inhibitory concentration) is determined to be the lowest concentration at which growth of the bacteria is arrested. MBC (minimal bactericidal concentration) is determined to be the lowest concentration at which the bacteria are being killed.

E. coli = assay: Antimicrobial assay; assay type: cell-based; settings: up to 64 mg/mL
Procedure: as §1, §2, §3, §4, §5

C. albicans (ATCC 14053) = assay: Filter binding assay of Tc-99m-labelled conjugates; settings: Tc-99m-labelled conjugate
Procedure: (§6) *Note: C. albicans has a longer growth cycle than the other microorganisms and, therefore, the culture is incubated for 2 days. Also, the optimum growth temperature for C. albicans is 30° C.
C. albicans (ATCC 14053)→YM Broth (YMB; Difco)
The cultures are then subcultured by removing 50-150 mL of the culture (O.D. dependent) and transferring to a 50 mL culture flask containing 20 mL broth. […] The concentration of each microorganism is determined by reading the optical density (O.D.) of the subculture using a spectrophotometer.
(§7) The flasks are incubated in a shaking water bath (200 rpm) at 37° C. […] There is also a background which is a flask containing broth with no microorganism and to which the radioactivity is also added. […] The filters are then assayed for radioactivity using a gamma well counter (Cobra II; Canberra Packard). […]

E. coli (ATCC 25922) = assay: Filter binding assay of Tc-99m-labelled conjugates; settings: Tc-99m-labelled conjugate, 37° C.
Procedure: E. coli (ATCC 25922)→Tryptic Soy Broth (TSB; Difco)
(§8) The cultures are then subcultured by removing 50-150 mL of the culture (O.D. dependent) and transferring to a 50 mL culture flask containing 20 mL broth. The subcultures are incubated at 37° C. or 30° C. until a growth concentration of 10^8 cfu (colony forming unit)/mL is reached. The concentration of each microorganism is determined by reading the optical density (O.D.) of the subculture using a spectrophotometer. The correlation between O.D. and growth of each microorganism has been previously established.
as §7

S. aureus = assay: microbe, parasite or virus in culture; assay type: cell-based; settings: for antimicrobial activity at the concentrations tested: S. aureus, up to 64 mg/mL
Procedure: as §1, §2, §3, §4, §5

[2] = Filter binding assay of Tc-99m-labelled conjugates; settings: Tc-99m-labelled conjugate, zymosan suspension 50 mg/mL
Procedure: as §6
The flasks are incubated in a shaking water bath (200 rpm) at 37° C. A 10 mL zymosan suspension at 50 mg/mL and a 0.5% carrageenan mixture are also made. There is also a background which is a flask containing broth with no microorganism and to which the radioactivity is also added. At various time intervals, 200 mL of the cultures, suspensions, and the background is removed and filtered through 25 mm diam., 22 mm, cellulose acetate/nitrate, membrane filters (Millipore) using a Millipore vacuum manifold. The filters are washed 3× with 1 mL PBS. The filters are then assayed for radioactivity using a gamma well counter (Cobra II; Canberra Packard). The time intervals at which the cultures are sampled are: […]

S. aureus (ATCC 25923) = assay: Filter binding assay of Tc-99m-labelled conjugates; settings: Tc-99m-labelled conjugate, 37° C.
Procedure: S. aureus (ATCC 25923)→TSB
as §8, §7

Compound	Filter Binding Assay Results at 2 h, P. aeruginosa [1] [%]	antimicrobial activity at the concentrations tested (P. aeruginosa)	antimicrobial activity at the concentrations tested (E. coli)	Filter Binding Assay Results at 2 h, C. albicans (C. albicans (ATCC 14053)) [%]	Filter Binding Assay Results at 2 h, E. coli (E. coli (ATCC 25922)) [%]	MBC (minimal bactericidal concentration) (S. aureus) [mg/mL]	MIC (minimal inhibitory concentration) (S. aureus) [mg/mL]	antimicrobial activity at the concentrations tested (S. aureus)	Filter Binding Assay Results at 2 h, Zymosan [2] [%]	Filter Binding Assay Results at 2 h, S. aureus (S. aureus (ATCC 25923)) [%]	MBC (S. aureus; Staphylococcus aureus, read-out: MBC (minimal bactericidal concentration)) [mg/mL]
CN[C@H](CC(C)C)C(=O)N[C@H]1C(=O)N[C@@H](CC(N)=O)C(=O)N[C@H]2C(=O)N[C@H]3C(=O)N[C@H](C(=O)N[C@H](C(=O)NCCCNC(=O)CNC(=O)C(CSCNC(C)=O)NC(=O)C(CO)NC(=O)CN(C)C)c4cc(O)cc(O)c4-c4cc3ccc4O)[C@H](O)c3ccc(c(Cl)c3)Oc3cc2cc(c3O[C@@H]2O[C@H](CO)[C@@H](O)[C@H](O)[C@H]2O[C@H]2C[C@](C)(N)[C@H](O)[C@H](C)O2)Oc2ccc(cc2Cl)[C@H]1O (stereo partly drawn) [(IA), DimethylGly-Ser-Cys(Acm)-Gly-NH(CH2)3 NH-Vancomycin]	25	antimicrobial against only S. aureus	antimicrobial against only S. aureus	21	31	32 (≈ 16.8 mM)	16 to 32	antimicrobial against only S. aureus	35	48	
CN[C@H](CC(C)C)C(=O)N[C@H]1C(=O)N[C@@H](CC(N)=O)C(=O)N[C@H]2C(=O)N[C@H]3C(=O)N[C@H](C(=O)N[C@H](C(=O)O)c4cc(O)cc(O)c4-c4cc3ccc4O)[C@H](O)c3ccc(c(Cl)c3)Oc3cc2cc(c3O[C@@H]2O[C@H](CO)[C@@H](O)[C@H](O)[C@H]2O[C@H]2C[C@](C)(N)[C@H](O)[C@H](C)O2)Oc2ccc(cc2Cl)[C@H]1O [Vancomycin, reference compound]		antimicrobial against only S. aureus	antimicrobial against only S. aureus					antimicrobial against only S. aureus			32 to 64 (≈ 22.1 to 44.2 mM)
DimethylGly-Ser-Cys(Acm)-(βAla)3 -Lys(N^ε -Vancomycin)-Gly-OH [(IB)]				5	18				42	22	

From patent publication US6017511A, “Glycopeptide-chelator conjugates” (Resolution Pharmaceuticals Inc., priority 1997, dated 2000)
